The values that follow come from patent publication US20180185305A1, “An Amino Thiol for Use in the Treatment of an Infection Caused by the Bacterium Mycobacterium Spp” (NOVABIOTICS LIMITED, priority 2015, published 2018).

What is called MIC is the least concentration at which growth counts as inhibited.

Common to all, as to type: cell-based
Test [1] concerns Mycobacterium abscessus. As to the kind of experiment: Antimicrobial susceptibility of M. abscessus isolates, CLSI broth microdilution (MIC100). As to conditions: for MIC: Mycobacteroides abscessus. The procedure:
(§1) Mycobacterium absessus complex (MAC) was isolated from three participating patients. The susceptibility of these isolates, plus the MAC type strain M. abscessus DSMZ44196 to the antimicrobial effects of cysteamine alone and cysteamine combined with antibiotics employed in MAC eradication strategies, (amikacin, azithromycin and meropenem) was assessed by CLSI broth microdilution procedure [CLSI, 2012] and checkerboard assay respectively.
Background: Broth dilution looks for growth in wells or tubes with falling amounts of substance.

Test [2] relates to polymicrobial load in CF sputum. As to the kind of experiment: Effect of cysteamine and antibiotics on CF sputum microbial burden: single exposure. Particulars: overall over 4 and 24 h exposure; for reduction of polymicrobial load: cysteamine 1 mg/ml. The procedure: Sputum samples were processed for antimicrobial activity within 4 h of collection. To assess the antimicrobial impact of cysteamine alone and cysteamine in conjunction with antibiotics commonly used to treat infective exacerbations of CF lung disease, 0.2 ml of each sputum sample sputum was diluted ten fold in sterile phosphate buffered saline (PBS) and vortexed. Aliquots (0.2 ml) of the homogenised diluted sample were exposed to cysteamine only (1 mg/ml), [ ] antibiotic (tobramycin [0.1 mg/ml] or ciprofloxacin, [0.1 mg/ml] only, cysteamine plus antibiotic or vehicle (PBS) only, for 4 and 24 h at 37° C. Sputum samples were then serially diluted 10-fold (1×10^−1 to 1×10^−8) and spread-plated on non-selective nutrient agar plates. Cultures were incubated at 37° C. and cfu/ml of bacteria quantified at 48 h.
FEV1 was expressed as a percentage of predicted using GLI 2012 reference equations. Sputum microbial load expressed as colony forming units approximated to a log-normal distribution and was therefore logarithmically transformed to base 10. Microbial load after incubation with cysteamine, tobramycin, ciprofloxacin after 4 and 24 hours was modelled using two way repeated measures ANOVA with post hoc testing using Bonferroni adjustment. Analyses were performed using IBM SPSS Statistics for Windows, v22.0 (Armonk, N.Y.).

Test [3] concerns Mycobacterium abscessus. Put plainly: Checkerboard assay of cysteamine combined with antibiotics, fractional inhibitory concentration index. Here is the method: The Fractional Inhibitory Concentration (FIC) corresponds to an interaction coefficient indicating whether the combination of antimicrobial agents is synergistic, additive, antagonist or neutral. The FIC is determined by comparing the activity of an agent in combination (MIC of agent A+agent B) with the activity of the agent alone (MIC of agent A or agent B) as follow (Singh et al., 2000):
FIC=MICA[combition]/MICA[alone]+MICB[combination]/MICB[alone]
Additive combinations of two antimicrobial agents are indicated by a FIC index of 1, whereas a FIC index <1 indicates synergistic combinations. Neutral combinations would give a FIC between 1 and 4, a FIC index higher than 4 indicates antagonist effects between the two antimicrobial agents.
as §1

Setting [4] is: DSM44196, strain DSM44196 (type).
Setting [5] is: 23 samples, tobramycin 0.1 mg/ml, mean (95% CI).
Where [6] appears, read: nine samples, ciprofloxacin 0.1 mg/ml.

With `NCC[C@H](O)C(=O)N[C@@H]1C[C@H](N)[C@@H](O[C@H]2O[C@H](CN)[C@@H](O)[C@H](O)[C@H]2O)[C@H](O)[C@H]1O[C@H]1O[C@H](CO)[C@@H](O)[C@H](N)[C@H]1O` [Amikacin], the MIC is 4 to 8 µg/mL in the test with Mycobacterium abscessus [1] (setting [4]), 16 µg/mL with Mycobacterium abscessus [1] (strain MR27419N (clinical)), 4 µg/mL in the test with Mycobacterium abscessus [1] (strain MR313292 (clinical)) and 16 µg/mL with Mycobacterium abscessus [1] (strain MR313367D (clinical)).

Consider `NC[C@H]1O[C@H](O[C@H]2[C@H](O)[C@@H](O[C@H]3O[C@H](CO)[C@@H](O)[C@H](N)[C@H]3O)[C@H](N)C[C@@H]2N)[C@H](N)C[C@@H]1O` [Tobramycin], for which the “reduction of polymicrobial load” value in test [2] (setting [5]) is on record as 1.42 (95% CI 0.92-1.92) log10 units.

As for `C[C@@H](O)[C@H]1C(=O)N2C(C(=O)O)=C(S[C@@H]3CN[C@H](C(=O)N(C)C)C3)[C@H](C)[C@H]12` [Meropenem], the MIC in the test on Mycobacterium abscessus [1] (setting [4]) is 64 µg/mL; with Mycobacterium abscessus [1] (strain MR27419N (clinical)) it was 64 µg/mL; in the test with Mycobacterium abscessus [1] (strain MR313292 (clinical)), 16 to 64 µg/mL; with Mycobacterium abscessus [1] (strain MR313367D (clinical)), 16 to 64 µg/mL.

For `O=C(O)c1cn(C2CC2)c2cc(N3CCNCC3)c(F)cc2c1=O` [Ciprofloxacin], in test [2] (setting [6]), the “reduction of polymicrobial load” value is recorded as 0.84 log10 units.

As to `NCCS` [Cysteamine, cysteamine], in the test on Mycobacterium abscessus [3] (clinical and type strains), the “effect of cysteamine on the impact of amikacin (by FICI)” value is “potentiated the impact of amikacin in both clinical and type strains”. For the same compound, the “effect of cysteamine on the impact of azithromycin (by FICI)” value with Mycobacterium abscessus [3] (clinical and type strains) is reported as “azithromycin in all but one clinical strain”. Moreover, in the test on Mycobacterium abscessus [3] (clinical isolates and type strain), the “effect of cysteamine on meropenem sensitivity” value is given as “showing some concentration-specific antagonism”. Moreover, the results for the “reduction of polymicrobial load” value in test [2] (setting [5]) and in test [2] (setting [6]) were 3.18 (2.30-4.07) log10 units and 2.76 log10 units, respectively. Also, the “further reduction of polymicrobial load compared with tobramycin” value in test [2] (23 samples) is listed as 1.76 log10 units. Besides, the “further reduction of polymicrobial load compared with ciprofloxacin” value in test [2] (nine samples) came to 1.92 log10 units. Besides, the MIC range with Mycobacterium abscessus [1] (M. abscessus isolated from three study subjects) was in the range of 62.5 to 250 µg/mL. Moreover, the minimal inhibitory concentration (MIC) was 62.5 to 125 µg/mL in the test on Mycobacterium abscessus [1] (setting [4]), 125 µg/mL in the test with Mycobacterium abscessus [1] (strain MR27419N (clinical)), 125 to 250 µg/mL with Mycobacterium abscessus [1] (strain MR313292 (clinical)) and 62.5 to 125 µg/mL in the test with Mycobacterium abscessus [1] (strain MR313367D (clinical)).

As to `CC[C@H]1OC(=O)[C@H](C)[C@@H](O[C@H]2C[C@@](C)(OC)[C@@H](O)[C@H](C)O2)[C@H](C)[C@@H](O[C@@H]2O[C@H](C)C[C@H](N(C)C)[C@H]2O)[C@](C)(O)C[C@@H](C)CN(C)[C@H](C)[C@@H](O)[C@]1(C)O` [Azithromycin], the MIC in the test on Mycobacterium abscessus [1] (setting [4]) was 1 to 2 µg/mL; with Mycobacterium abscessus [1] (strain MR27419N (clinical)) it was 1 µg/mL; with Mycobacterium abscessus [1] (strain MR313292 (clinical)), 8 µg/mL; in the test on Mycobacterium abscessus [1] (strain MR313367D (clinical)), 1 µg/mL.
